In this data set the test system is plaque type psoriasis vulgaris. Description: Simple-blind, own-control topical gel treatment of five psoriasis patients (Example 1). In kind it is in vivo, human. From the text:
The gel used was of the following composition:
Patients for the treatment of psoriasis (five patients) were chosen as having a relatively secure diagnosis of plaque type psoriasis vulgaris with silvery scales covering the surface of the lesion. This disease tends to be chronic, and often difficult to treat with topical agents. All of the five patients treated were diagnosed by a dermatologist and had the diagnosis for over three years. None of these patients had arthritis.
After a treatment, which may vary from two weeks to one month, there was a considerable improvement both scaling, size, thickness and erythematous appearance of the lesions. The lesions in these patients were all symmetric and each patient was treated with the formulation of the present invention without the active compound on one side and with the active compound on the other. Each patient was treated as their own control (simple blind).
Two patients were treated with galantamine and three patients with donepezil.

Structures can show the parent of a compound that is named as a salt.

In the case of `COc1ccc2c3c1O[C@H]1C[C@@H](O)C=C[C@@]31CCN(C)C2` [galantamine, galantamine hydrobromide], where the note is “gel containing 0.1% active compound, two days twice daily”, the adverse effect result was “no adverse effect was noticed”.
On to `COc1cc2c(cc1OC)C(=O)C(CC1CCN(Cc3ccccc3)CC1)C2` (centres unmarked) [donepezil, donepezil hydrochloride], for which, for the setting “human, in vivo”, the adverse effect result is “no adverse effect was noticed”.

The values above are taken from patent publication US9186345B2 (priority 2004, dated 2015).
